Experimental data reported in patent US10736883B2, “Triazole furan compounds as agonists of the APJ receptor” (AMGEN INC., priority 2016, dated 2020).

target: APJ receptor (Homo sapiens (Human), UniProt P35414); assay: [35S]GTPγS binding assay on membranes from CHO cells stably expressing human APJ receptor; type: biochemical; settings: membranes of CHO cells stably expressing human APJ receptor, means of several independent experiments, read-out: Activity hAPJ SPA EC50 IP
In short: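 Membranes from CHO cells stably expressing human APJ were incubated with 0.2 nM [35S]GTPγS and ligands for 90 min at RT in 20 mM HEPES pH 7.5, 5 mM MgCl2, 200 mM NaCl, 3 μM GDP, 0.1% BSA with WGA PS beads. Nonspecific binding was set with 100 μM GTPγS. EC50 came from non-linear regression.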

Chain of APJ receptor (P35414 whole entry): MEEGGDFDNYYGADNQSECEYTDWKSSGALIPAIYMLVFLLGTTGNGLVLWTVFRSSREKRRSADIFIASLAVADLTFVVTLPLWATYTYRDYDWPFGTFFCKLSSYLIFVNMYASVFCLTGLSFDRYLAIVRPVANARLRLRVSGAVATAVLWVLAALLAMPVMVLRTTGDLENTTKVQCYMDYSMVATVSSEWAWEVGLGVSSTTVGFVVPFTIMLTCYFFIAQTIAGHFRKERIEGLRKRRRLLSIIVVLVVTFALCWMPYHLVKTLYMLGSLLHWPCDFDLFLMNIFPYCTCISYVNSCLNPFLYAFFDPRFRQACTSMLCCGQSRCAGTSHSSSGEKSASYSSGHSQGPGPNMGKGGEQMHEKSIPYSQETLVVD

In order of falling EC50:
1. COc1cccc(OC)c1-n1c(NS(=O)(=O)[C@H](C)[C@@H](O)c2nccn2C)nnc1-c1ccc(C)o1 (single isomer, unassigned) [Example 297.0, (1S,2R)—N-(4-(2,6-Dimethoxyphenyl)-5-(5-methyl-2-furanyl)-4H-1,2,4-triazol-3-yl)-1-hydroxy-1-(1-methyl-1H-imidazol-2-yl)-2-propanesulfonamide or (1R,2S)—N-(4-(2,6-dimethoxyphenyl)-5-(5-methyl-2-furanyl)-4H-1,2,4-triazol-3-yl)-1-hydroxy-1-(1-methyl-1H-imidazol-2-yl)-2-propanesulfonamide]  8.8 nM
2. COc1cccc(OC)c1-n1c(NS(=O)(=O)[C@H](C)[C@@H](O)c2ncn3ccccc23)nnc1-c1ccc(C)o1 (single isomer, unassigned) [Example 288.0, (1R,2S)—N-(4-(2,6-Dimethoxyphenyl)-5-(5-methyl-2-furanyl)-4H-1,2,4-triazol-3-yl)-1-hydroxy-1-imidazo[1,5-a]pyridin-1-yl-2-propanesulfonamide or (1S,2R)—N-(4-(2,6-dimethoxyphenyl)-5-(5-methyl-2-furanyl)-4H-1,2,4-triazol-3-yl)-1-hydroxy-1-imidazo[1,5-a]pyridin-1-yl-2-propanesulfonamide]  4.2 nM
3. COc1cccc(OC)c1-n1c(NS(=O)(=O)[C@H](C)[C@H](O)c2ccccn2)nnc1-c1ccc(C)o1 (stereo in doubt) [Example 90.0, (1R,2R)-N-(4-(2,6-dimethoxyphenyl)-5-(5-methylfuran-2-yl)-4H-1,2,4-triazol-3-yl)-1-hydroxy-1-(pyridin-2-yl)propane-2-sulfonamide compound and (1S,2S)-N-(4-(2,6-dimethoxyphenyl)-5-(5-methylfuran-2-yl)-4H-1,2,4-triazol-3-yl)-1-hydroxy-1-(pyridin-2-yl)propane-2-sulfonamide]  3.9 nM
4. CCO[C@H](c1ncc(C)cn1)[C@@H](C)S(=O)(=O)Nc1nnc(-c2ccc(C)o2)n1-c1c(OC)cccc1OC (single isomer, unassigned) [Example 130.0, (1R,2R)-N-(4-(2,6-dimethoxyphenyl)-5-(5-methylfuran-2-yl)-4H-1,2,4-triazol-3-yl)-1-ethoxy-1-(5-methylpyrimidin-2-yl)propane-2-sulfonamide or (1S,2S)-N-(4-(2,6-dimethoxyphenyl)-5-(5-methylfuran-2-yl)-4H-1,2,4-triazol-3-yl)-1-ethoxy-1-(5-methylpyrimidin-2-yl)propane-2-sulfonamide]  3.5 nM
5. COc1cccc(OC)c1-n1c(NS(=O)(=O)[C@H](CCO)Cc2ncc(C)cn2)nnc1-c1ccc(C)o1 [Example 80.0]  1.1 nM
6. COc1cccc(OC)c1-n1c(NS(=O)(=O)[C@H]2C[C@@H](C(=O)N3CCC3)CN(c3ncc(F)cn3)C2)nnc1-c1ccco1 (single isomer, unassigned) [Example 162.0, (3R,5S)-5-(1-Azetidinylcarbonyl)-N-(4-(2,6-dimethoxyphenyl)-5-(2-furanyl)-4H-1,2,4-triazol-3-yl)-1-(5-fluoro-2-pyrimidinyl)-3-piperidinesulfonamide or (3S,5R)-5-(1-azetidinylcarbonyl)-N-(4-(2,6-dimethoxyphenyl)-5-(2-furanyl)-4H-1,2,4-triazol-3-yl)-1-(5-fluoro-2-pyrimidinyl)-3-piperidinesulfonamide]  0.68 nM
7. COc1cccc(OC)c1-n1c(NS(=O)(=O)CCc2ncc(Cl)cc2CCN2CCC2)nnc1-c1ccco1 [Example 235.0, 2-(3-(2-(1-Azetidinyl)ethyl)-5-chloro-2-pyridinyl)-N-(4-(2,6-dimethoxyphenyl)-5-(2-furanyl)-4H-1,2,4-triazol-3-yl)ethanesulfonamide]  0.56 nM
8. COc1cccc(OC)c1-n1c(NS(=O)(=O)[C@@H](C)[C@H](O)c2ccc(C#N)cc2F)nnc1-c1ccc(C)o1 [Example 75.0]  0.55 nM
9. COc1cccc(OC)c1-n1c(NS(=O)(=O)[C@H]2C[C@@H](O)CN(c3ncc(F)cc3C#N)C2)nnc1-c1ccc(C)o1 (mixture of isomers) [Example 330.0, (3S,5R)-1-(3-Cyano-5-fluoro-2-pyridinyl)-N-(4-(2,6-dimethoxyphenyl)-5-(5-methyl-2-furanyl)-4H-1,2,4-triazol-3-yl)-5-hydroxy-3-piperidinesulfonamide and (3R,5S)-1-(3-cyano-5-fluoro-2-pyridinyl)-N-(4-(2,6-dimethoxyphenyl)-5-(5-methyl-2-furanyl)-4H-1,2,4-triazol-3-yl)-5-hydroxy-3-piperidinesulfonamide]  0.43 nM
10. COc1cccc(OC)c1-n1c(NS(=O)(=O)[C@@H](C)[C@](C)(F)c2ncc(C#N)cn2)nnc1-c1ccc(C)o1 (single isomer, unassigned) [Example 230.0]  0.41 nM
11. COc1cccc(OC)c1-n1c(NS(=O)(=O)CCc2ncc(Cl)cc2-c2cccnc2)nnc1-c1ccco1 [Example 221.0, 2-(5-Chloro-3,3′-bipyridin-2-yl)-N-(4-(2,6-dimethoxyphenyl)-5-(2-furanyl)-4H-1,2,4-triazol-3-yl)ethanesulfonamide]  0.3 nM
12. COc1cccc(OC)c1-n1c(NS(=O)(=O)[C@H](C)[C@H](O)c2ccc(C#N)c(C)n2)nnc1-c1ccc(C)o1 (single isomer, unassigned) [Example 86.0]  0.23 nM
13. (1R,2S)-1-(5-chloro-2-pyrimidinyl)-N-(4-(2,6-dimethoxyphenyl)-5-(5-methyl-2-furanyl)-4H-1,2,4-triazol-3-yl)-1-hydroxy-2-propanesulfonamide or (1S,2R)-1-(5-chloro-2-pyrimidinyl)-N-(4-(2,6-dimethoxyphenyl)-5-(5-methyl-2-furanyl)-4H-1,2,4-triazol-3-yl)-1-hydroxy-2-propanesulfonamide [Example 216.0]  0.23 nM
14. COc1cccc(OC)c1-n1c(NS(=O)(=O)[C@H](C)[C@H](OC)c2ncc(F)cn2)nnc1-c1ccc(C)o1 (single isomer, unassigned) [Example 122.0, (1R,2R)-N-(4-(2,6-dimethoxyphenyl)-5-(5-methylfuran-2-yl)-4H-1,2,4-triazol-3-yl)-1-(5-fluoropyrimidin-2-yl)-1-methoxypropane-2-sulfonamide or (1S,2S)-N-(4-(2,6-dimethoxyphenyl)-5-(5-methylfuran-2-yl)-4H-1,2,4-triazol-3-yl)-1-(5-fluoropyrimidin-2-yl)-1-methoxypropane-2-sulfonamide]  0.22 nM
15. COc1cccc(OC)c1-n1c(NS(=O)(=O)[C@H]2C[C@@H](O)CN(c3cncc(C#N)n3)C2)nnc1-c1ccc(C)o1 (single isomer, unassigned) [Example 321.0, (3S,5R)-1-(6-Cyano-2-pyrazinyl)-N-(4-(2,6-dimethoxyphenyl)-5-(5-methyl-2-furanyl)-4H-1,2,4-triazol-3-yl)-5-hydroxy-3-piperidinesulfonamide or (3R,5S)-1-(6-cyano-2-pyrazinyl)-N-(4-(2,6-dimethoxyphenyl)-5-(5-methyl-2-furanyl)-4H-1,2,4-triazol-3-yl)-5-hydroxy-3-piperidinesulfonamide]  0.18 nM
